# According to patent US9302988B2, “Fluoromethyl-substituted pyrrole carboxamides” (GRÜNENTHAL GMBH, priority 2012, dated 2016):
# Biological target: T1, Human CaV2.2 channels (Homo sapiens, UniProt Q00975)
# T1 construct: expressed in transfected cells
# Experiment: Fluorescent assay for CaV2.2 channels using potassium depolarization to induce channel opening (FLIPR, Fluo-4)
# Format: cell-based
# Settings: 3 μM test compound, 30 mM KCl, HEK293 cells stably expressing human CaV2.2; read-out: %-Inhib (CaV2.2) @3 μM @30 mM KCl
# Description: In the process, the Ca^2+ influx is quantified in the FLIPR assay with the aid of a Ca^2+-sensitive dye (type Fluo-4, Molecular Probes Europe BV, Leiden, the Netherlands) in a fluorescent imaging plate reader (FLIPR 3, Molecular Devices, Sunnyvale, USA), as described hereinafter.
# 2.1 Fluorescent Assay for CaV2.2 Channels Using Potassium Depolarization to Induce Channel Opening
# Human CaV2.2 channels were stably expressed in HEK293 cells together with alpha2-delta and beta subunits of voltage gated calcium channels. In addition, an inwardly rectifying potassium channel (Kir2.3) was stably expressed in these cells to augment control of the cell membrane potential by the concentration of extracellular potassium ions. Raise of the extracellular potassium concentration leads to depolarization of the membrane potential and thus regulates the voltage dependent state of CaV2.2 channels. For preparation, cells were seeded in black poly-D-lysine coated 96-well plates (Becton Dickinson, Biocoat 4640) in 100 μl medium [500 ml DMEM/F-12 plus Glutamax (Invitrogen 31331-093) plus 5.5 ml MEM NEAA 100× (Invitrogen 11140-035) plus 50 ml FBS decomplemented (Invitrogen 10270-106) plus 4.4 ml Geneticin (Invitrogen 10131-027) plus 1.1 ml Hygromycin B (Invitrogen 10687-010) plus 68.75 μl Puromycin (Clontech, 631306)] at a cell density of 45.000 cells per well.
# Plates were incubated at 37° C. (5% CO2) for 20 to 23 hours. On the day of experiment medium was discarded and cells were loaded with Fluo 4 by addition of 100 μl of basic assay buffer (10 mM HEPES, 30 mM KCl, 120 mM NaCl, 0.8 mM CaCl2, 1.7 mM MgCl2, 10 mM Glucose, 0.1% BSA. pH 7.4) containing 2 μM Fluo 4 (Molecular Probes; F-14201), 0.01% pluronic acid (Molecular Probes; P-6866) and 2.5 mM probenecid (Molecular Probes; P36400). Cells were incubated in the dark at 25° C. for 60 min. Then the dye containing buffer was discarded and 100 μl basic assay buffer was added. Subsequently cells were incubated in the dark at 25° C. for 15 min. 25 μl of basic assay buffer with or without test compound were added and cells were incubated again in the dark at 25° C. for 15 min. Fluorescence intensity was measured on a FLIPR 3 instrument (Molecular Devices Corp., Sunnyvale, Calif.) with excitation at 480 nm and emission at 535 nm. After continuously reading fluorescence for 30 sec, 50 μl of basic assay buffer containing 210 mM KCl (NaCl omitted) were added for depolarization. Peak fluorescent signal intensity was determined and the amplitude of the peak signal, normalized to base line, was used to measure channel inhibition by test compounds.
# T1 sequence (Q00975 whole entry): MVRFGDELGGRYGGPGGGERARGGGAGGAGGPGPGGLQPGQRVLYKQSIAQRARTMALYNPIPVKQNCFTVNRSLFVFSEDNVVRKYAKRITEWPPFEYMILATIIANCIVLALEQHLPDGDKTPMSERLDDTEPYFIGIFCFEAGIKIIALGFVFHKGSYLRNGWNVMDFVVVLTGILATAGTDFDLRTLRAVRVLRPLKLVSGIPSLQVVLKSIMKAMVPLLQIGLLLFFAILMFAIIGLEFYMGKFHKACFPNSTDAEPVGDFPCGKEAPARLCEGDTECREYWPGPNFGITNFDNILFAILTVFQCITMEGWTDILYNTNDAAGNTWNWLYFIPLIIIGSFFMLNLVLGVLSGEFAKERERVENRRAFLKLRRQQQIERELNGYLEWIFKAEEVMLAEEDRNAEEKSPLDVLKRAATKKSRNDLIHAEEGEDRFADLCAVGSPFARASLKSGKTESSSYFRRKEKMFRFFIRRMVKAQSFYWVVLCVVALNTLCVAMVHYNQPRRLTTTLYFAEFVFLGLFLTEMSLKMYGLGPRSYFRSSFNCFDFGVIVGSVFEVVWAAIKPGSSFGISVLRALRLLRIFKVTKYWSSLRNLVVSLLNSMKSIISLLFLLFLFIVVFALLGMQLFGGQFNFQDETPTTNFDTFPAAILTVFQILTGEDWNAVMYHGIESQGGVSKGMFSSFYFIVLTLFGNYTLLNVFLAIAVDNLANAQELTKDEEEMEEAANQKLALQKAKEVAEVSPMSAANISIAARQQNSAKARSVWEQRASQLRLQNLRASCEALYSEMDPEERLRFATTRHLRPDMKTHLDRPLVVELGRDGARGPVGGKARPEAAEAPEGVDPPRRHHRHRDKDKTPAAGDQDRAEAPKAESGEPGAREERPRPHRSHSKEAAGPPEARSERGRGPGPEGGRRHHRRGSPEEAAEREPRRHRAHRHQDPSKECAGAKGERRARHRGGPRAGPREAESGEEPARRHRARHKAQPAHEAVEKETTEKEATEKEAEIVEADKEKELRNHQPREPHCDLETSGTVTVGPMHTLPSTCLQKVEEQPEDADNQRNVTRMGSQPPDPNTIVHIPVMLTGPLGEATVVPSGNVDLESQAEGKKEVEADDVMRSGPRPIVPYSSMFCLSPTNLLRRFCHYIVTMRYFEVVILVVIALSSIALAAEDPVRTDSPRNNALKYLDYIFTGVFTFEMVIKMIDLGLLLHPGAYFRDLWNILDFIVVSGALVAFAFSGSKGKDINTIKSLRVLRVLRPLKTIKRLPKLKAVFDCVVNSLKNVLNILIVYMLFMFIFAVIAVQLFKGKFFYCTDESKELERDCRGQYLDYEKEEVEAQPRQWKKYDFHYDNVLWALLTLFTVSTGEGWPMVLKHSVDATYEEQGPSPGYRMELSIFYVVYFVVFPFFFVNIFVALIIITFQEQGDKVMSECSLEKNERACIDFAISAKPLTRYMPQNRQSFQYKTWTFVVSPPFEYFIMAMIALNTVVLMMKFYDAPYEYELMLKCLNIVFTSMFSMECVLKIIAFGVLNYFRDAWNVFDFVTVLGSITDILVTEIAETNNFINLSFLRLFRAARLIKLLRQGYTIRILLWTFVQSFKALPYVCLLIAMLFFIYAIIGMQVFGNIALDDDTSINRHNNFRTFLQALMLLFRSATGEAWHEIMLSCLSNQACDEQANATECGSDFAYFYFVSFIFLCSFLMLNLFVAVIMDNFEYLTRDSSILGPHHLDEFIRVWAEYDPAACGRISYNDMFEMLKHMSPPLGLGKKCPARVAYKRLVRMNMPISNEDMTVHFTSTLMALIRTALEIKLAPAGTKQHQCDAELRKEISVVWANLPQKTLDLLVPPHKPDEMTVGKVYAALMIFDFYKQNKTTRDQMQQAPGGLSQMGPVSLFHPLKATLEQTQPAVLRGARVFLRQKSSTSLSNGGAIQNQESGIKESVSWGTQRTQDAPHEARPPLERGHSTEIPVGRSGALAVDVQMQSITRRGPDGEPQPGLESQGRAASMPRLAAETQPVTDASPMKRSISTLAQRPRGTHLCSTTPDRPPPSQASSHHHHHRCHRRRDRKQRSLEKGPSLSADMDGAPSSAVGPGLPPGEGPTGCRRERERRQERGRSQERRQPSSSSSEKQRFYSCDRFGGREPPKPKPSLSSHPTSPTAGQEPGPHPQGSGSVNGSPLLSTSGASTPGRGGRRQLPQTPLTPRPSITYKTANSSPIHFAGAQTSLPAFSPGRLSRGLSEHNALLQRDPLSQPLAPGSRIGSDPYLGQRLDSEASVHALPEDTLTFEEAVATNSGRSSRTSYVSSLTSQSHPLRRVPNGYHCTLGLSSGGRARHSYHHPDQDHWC
# T1 sequence (P54289 25-1103, further chain): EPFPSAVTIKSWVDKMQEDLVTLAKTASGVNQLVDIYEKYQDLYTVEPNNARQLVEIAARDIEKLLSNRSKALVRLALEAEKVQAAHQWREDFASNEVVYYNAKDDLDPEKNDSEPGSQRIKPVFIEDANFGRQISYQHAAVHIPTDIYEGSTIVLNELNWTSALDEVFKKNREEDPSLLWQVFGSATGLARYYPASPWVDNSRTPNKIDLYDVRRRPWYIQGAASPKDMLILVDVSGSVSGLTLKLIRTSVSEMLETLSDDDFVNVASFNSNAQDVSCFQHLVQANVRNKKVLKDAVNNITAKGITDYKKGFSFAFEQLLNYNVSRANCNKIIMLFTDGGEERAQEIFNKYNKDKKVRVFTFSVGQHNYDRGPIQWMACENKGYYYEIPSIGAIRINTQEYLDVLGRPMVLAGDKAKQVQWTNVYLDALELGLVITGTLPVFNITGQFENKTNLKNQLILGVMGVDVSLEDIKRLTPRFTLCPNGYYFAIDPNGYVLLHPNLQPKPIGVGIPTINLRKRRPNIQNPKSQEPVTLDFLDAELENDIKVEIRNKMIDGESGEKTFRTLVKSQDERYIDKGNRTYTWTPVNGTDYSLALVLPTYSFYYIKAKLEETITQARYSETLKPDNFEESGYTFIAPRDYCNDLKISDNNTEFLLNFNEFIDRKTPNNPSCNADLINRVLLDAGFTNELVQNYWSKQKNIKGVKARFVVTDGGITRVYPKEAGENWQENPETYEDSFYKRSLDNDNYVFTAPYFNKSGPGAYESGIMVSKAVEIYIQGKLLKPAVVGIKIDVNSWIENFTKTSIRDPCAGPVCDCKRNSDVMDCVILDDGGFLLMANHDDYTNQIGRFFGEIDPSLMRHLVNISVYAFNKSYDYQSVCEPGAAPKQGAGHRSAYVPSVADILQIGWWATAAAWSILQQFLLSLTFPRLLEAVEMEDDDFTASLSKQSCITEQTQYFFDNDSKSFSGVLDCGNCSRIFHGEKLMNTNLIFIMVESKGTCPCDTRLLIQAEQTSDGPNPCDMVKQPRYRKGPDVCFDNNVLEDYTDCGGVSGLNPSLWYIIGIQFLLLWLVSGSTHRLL
# T1 sequence (P54284 whole entry, further chain): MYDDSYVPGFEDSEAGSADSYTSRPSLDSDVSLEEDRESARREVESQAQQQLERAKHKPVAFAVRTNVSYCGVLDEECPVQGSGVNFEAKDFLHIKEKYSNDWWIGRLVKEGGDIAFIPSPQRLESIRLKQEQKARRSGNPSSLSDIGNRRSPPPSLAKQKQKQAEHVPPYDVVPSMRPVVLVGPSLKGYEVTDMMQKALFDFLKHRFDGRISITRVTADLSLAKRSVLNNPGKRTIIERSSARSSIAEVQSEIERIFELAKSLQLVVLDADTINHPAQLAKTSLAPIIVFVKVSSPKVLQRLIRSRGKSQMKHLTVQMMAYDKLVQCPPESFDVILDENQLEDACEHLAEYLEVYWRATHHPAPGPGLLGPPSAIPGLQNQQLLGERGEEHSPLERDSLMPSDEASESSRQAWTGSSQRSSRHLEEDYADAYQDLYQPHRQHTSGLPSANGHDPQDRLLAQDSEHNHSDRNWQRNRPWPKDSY
row,Structure (SMILES),inhibition at 3 µM [%]
1,"O=C(c1c(-c2ccc(Cl)cc2)cc(C(F)(F)F)n1Cc1ccccc1)N1CCOCC1 [SC-01, [1-Benzyl-3-(4-chlorophenyl)-5-(trifluoromethyl)-1H-pyrrol-2-yl]-morpholin-4-yl-methanone]",> 95
2,"CN(CC(C)(C)C)C(=O)c1c(-c2ccc(Cl)cc2)cc(C(F)(F)F)n1Cc1ccccc1 [SC-02, 1-Benzyl-3-(4-chlorophenyl)-N-(2,2-dimethyl-propyl)-N-methyl-5-(trifluoromethyl)-1H-pyrrole-2-carboxylic acid amide]",75 to 95
3,"Cc1c(-c2ccc(Cl)cc2)c(C(=O)N2CCOCC2)n(Cc2ccccc2)c1C(F)(F)F [SC-03, [1-Benzyl-3-(4-chlorophenyl)-4-methyl-5-(trifluoromethyl)-1H-pyrrol-2-yl]-morpholin-4-yl-methanone]",> 95
4,"Cc1c(-c2ccc(Cl)cc2)c(C(=O)N(C)CC(C)(C)C)n(Cc2ccccc2)c1C(F)(F)F [SC-04, 1-Benzyl-3-(4-chlorophenyl)-N-(2,2-dimethyl-propyl)-N,4-dimethyl-5-(trifluoromethyl)-1 H-pyrrole-2-carboxylic acid amide]",75 to 95
5,"Cc1c(-c2ccc(Cl)cc2)c(C(=O)N2CC(O)C2)n(Cc2ccccc2)c1C(F)(F)F [SC-05, [1-Benzyl-3-(4-chlorophenyl)-4-methyl-5-(trifluoromethyl)-1H-pyrrol-2-yl]-(3-hydroxy-azetidin-1-yl)-methanone]",75 to 95
6,"Cc1c(-c2ccc(Cl)cc2)c(C(=O)N(C)CCS(C)(=O)=O)n(Cc2ccccc2)c1C(F)(F)F [SC-06, 1-Benzyl-3-(4-chlorophenyl)-N,4-dimethyl-N-(2-methylsulfonyl-ethyl)-5-(trifluoromethyl)-1H-pyrrole-2-carboxylic acid amide]",> 95
7,"Cc1c(-c2ccc(Cl)cc2)c(C(=O)N2CCNC(=O)C2)n(Cc2ccccc2)c1C(F)(F)F [SC-08, 4-[1-Benzyl-3-(4-chlorophenyl)-4-methyl-5-(trifluoromethyl)-1H-pyrrole-2-carbonyl]-piperazin-2-one]",75 to 95
8,"Cc1c(-c2ccc(Cl)cc2)c(C(=O)N2CCN(C)C(=O)C2)n(Cc2ccccc2)c1C(F)(F)F [SC-09, 4-[1-Benzyl-3-(4-chlorophenyl)-4-methyl-5-(trifluoromethyl)-1H-pyrrole-2-carbonyl]-1-methyl-piperazin-2-one]",75 to 95
9,"Cc1c(-c2ccc(Cl)cc2)c(C(=O)NC2CCOCC2)n(Cc2ccccc2)c1C(F)(F)F [SC-10, 1-Benzyl-3-(4-chlorophenyl)-4-methyl-N-tetrahydro-pyran-4-yl-5-(trifluoromethyl)-1H-pyrrole-2-carboxylic acid amide]",75 to 95
10,"Cc1c(-c2ccc(Cl)cc2)c(C(=O)N(C)C2CCOCC2)n(Cc2ccccc2)c1C(F)(F)F [SC-11, 1-Benzyl-3-(4-chlorophenyl)-N,4-dimethyl-N-tetrahydro-pyran-4-yl-5-(trifluoromethyl)-1H-pyrrole-2-carboxylic acid amide]",> 95
11,"Cc1c(-c2ccc(Cl)cc2)c(C(=O)NC2(CO)CC2)n(Cc2ccccc2)c1C(F)(F)F [SC-16, 1-Benzyl-3-(4-chlorophenyl)-N-[1-(hydroxymethyl)-cyclopropyl]-4-methyl-5-(trifluoromethyl)-1H-pyrrole-2-carboxylic acid amide]",75 to 95
12,"Cc1c(-c2ccc(Cl)cc2)c(C(=O)N2CCC(O)CC2)n(Cc2ccccc2)c1C(F)(F)F [SC-17, [1-Benzyl-3-(4-chlorophenyl)-4-methyl-5-(trifluoromethyl)-1H-pyrrol-2-yl]-(4-hydroxy-piperidin-1-yl)-methanone]",> 95
13,"Cc1c(-c2ccc(Cl)cc2)c(C(=O)N(C)C)n(Cc2ccccc2)c1C(F)(F)F [SC-18, 1-Benzyl-3-(4-chlorophenyl)-N,N,4-trimethyl-5-(trifluoromethyl)-1H-pyrrole-2-carboxylic acid amide]",75 to 95
